Laboratory results reported in US4299822A, “N-Trifluoroacetyladriamycin-14-O-hemiglutarate and -hemiadipate and therapeutic compositions containing same” (Sidney Farber Cancer Institute, Inc., priority 1980, dated 1981).
Converted amounts (≈) assume the structure as drawn. Read-outs that look alike come from different tables or passages of the source.

How the values were obtained:
CCRF-CEM cells = assay: growth inhibition of CCRF-CEM cell line in culture; type: cell-based; settings: Homo sapiens, read-out: ID50 (dose required to inhibit growth of the cultures by 50% relative to control)
Excerpt: The in vitro assays measure the growth inhibiting activity of the materials against the CCRF-CEM cell line in culture. […] The in vivo evaluations were made by preparing a 0.2 to 0.7% by weight solution of the active agent in a formulation consisting of 10% by volume of each polyethoxylated castor oil and ethanol in saline and injecting the dosage intraperitoneally. The evaluations were made of the antitumor activity against the murine P388 and murine L1210 leukemias in BDF1 male mice according to standard National Cancer Institute protocols as set forth by Geran et al., Cancer Chemotherap. Rep., Part 3, Volume 3, pages 1 et seq.

murine P388 leukemia = assay: in vivo antitumor activity against murine P388 leukemia, ip qd 1-4; design: species or system mouse (BDF1 male mice)
Protocol: (§1) The toxicity and therapeutic effectiveness of the new compounds and active agents of the present invention are shown by in vitro assays and by in vivo evaluations in mice. The in vitro assays measure the growth inhibiting activity of the materials against the CCRF-CEM cell line in culture. The cell line was derived from the peripheral blood of a child with lymphoblastic leukemia as described by Foley et al., Cancer, Volume 18, page 522 et seq. (1965), and the assays were carried out by the procedure of Foley and Lazarus, Biochem. Pharmacol., Volume 16, pages 659 et seq. (1967), the results being reported in terms of the dose in micromoles per liter required to inhibit growth of the cultures by 50% relative to control cultures to which no drug had been added (ID50). The in vivo evaluations were made by preparing a 0.2 to 0.7% by weight solution of the active agent in a formulation consisting of 10% by volume of each polyethoxylated castor oil and ethanol in saline and injecting the dosage intraperitoneally. The evaluations were made of the antitumor activity against the murine P388 and murine L1210 leukemias in BDF1 male mice according to standard National Cancer Institute protocols as set forth by Geran et al., Cancer Chemotherap. Rep., Part 3, Volume 3, pages 1 et seq. (1972) , except that a qd 1-4 schedule was used in place of qd 1-9 in order to conserve materials.
(§2) Optimal dosage was determined by testing doses which were at several multiples of 10 milligrams/kilogram of body weight. Some effectiveness can be observed at dosages ranging from 30 to 70 milligrams/kilogram of body weight, depending upon the particular compound employed.
The following table summarizes the in vivo antitumor activity of the same compounds as those in Table I, evaluated against murine P388 leukemia as described above. All compounds were administered intraperitoneally, adriamycin in clinical formulation (1 part adriamycin plus 5 parts lactose, in 0.9% saline), the other compounds in 10% Emulphor EL-620, 10% ethanol, 80% isotonic saline.

[1] = clinical use; cited from earlier work
[2] = hydrolytic stability in aqueous buffers, TLC quantification of N-trifluoroacetyladriamycin; type: physicochemical; settings: for degraded at 24 h: aqueous buffer, dark, read-out: Percent hydrolyzed; for resistance to hydrolysis: aqueous solutions
Excerpt: The results were as follows:

mice = assay: toxicity to mice; type: in vivo, mouse
Protocol: as §1

murine L1210 leukemia = assay: in vivo antitumor activity against L1210 leukemia, ip days 1-4; design: species or system mouse (BDF1 male mice)
Protocol: as §1, §2
All compounds were administered intraperitoneally; in tests (1) and (2), the compounds were in 10% Emulphor EL-620, 10% ethanol, and 80% isotonic saline. In test (3) the compound was in aqueous buffer containing monobasic potassium phosphate and sodium hydroxide (0.05 M), pH 7.40: […]

[3] = cytotoxicity or anti-tumor activity (general statement); settings: for cytotoxicity or anti-tumor activity relative to adriamycin: vs adriamycin; for cytotoxicity or anti-tumor activity relative to N-trifluoroacetyladriamycin-14-valerate: vs valerate
Protocol: as §1

solubility in water = settings: for solubility: phosphate buffer, pH 7.4, aqueous buffer; for solubility in water relative to N-trifluoroacetyladriamycin-14-valerate: physiological pH in the range pH 7.2-7.5
[4] = steroid administration to patients with vehicle-associated chest pain; cited from earlier work
[5] = each dose 1.0 mg/kg ip, clinical formulation (lactose, 0.9% saline)
[6] = each dose 2.0 mg/kg ip, clinical formulation (lactose, 0.9% saline)
[7] = each dose 3.0 mg/kg ip, clinical formulation (lactose, 0.9% saline)
[8] = each dose 4.0 mg/kg ip, clinical formulation (lactose, 0.9% saline)
[9] = each dose 5.0 mg/kg ip, clinical formulation (lactose, 0.9% saline)
[10] = 50.0 mg/kg/d × 4 ip, 10% Emulphor EL-620, 10% ethanol, 80% isotonic saline
[11] = 60.0 mg/kg/d × 4 ip, 10% Emulphor EL-620, 10% ethanol, 80% isotonic saline
[12] = test (3): 50.0 mg/kg/d × 4 ip, aqueous phosphate buffer (0.05 M) pH 7.40
[13] = test (3): 60.0 mg/kg/d × 4 ip, aqueous phosphate buffer (0.05 M) pH 7.40
[14] = each dose 40.0 mg/kg ip, 10% Emulphor EL-620, 10% ethanol, 80% saline
[15] = each dose 50.0 mg/kg ip, 10% Emulphor EL-620, 10% ethanol, 80% saline
[16] = each dose 60.0 mg/kg ip, 10% Emulphor EL-620, 10% ethanol, 80% saline
[17] = each dose 70.0 mg/kg ip, 10% Emulphor EL-620, 10% ethanol, 80% saline
[18] = each dose 30.0 mg/kg ip, 10% Emulphor EL-620, 10% ethanol, 80% saline

## COc1cccc2c1C(=O)c1c(O)c3c(c(O)c1C2=O)C[C@@](O)(C(=O)CO)C[C@@H]3O[C@H]1C[C@H](N)[C@H](O)[C@H](C)O1 [Adriamycin]
CCRF-CEM cells; CCRF-CEM
  IC50: 50 nM
Murine P388 leukemia; [5]
  % ILS (percent increase in life span relative to untreated controls): 81%
  No. alive on d 30: 0/7
  Survival, Median day of death (range): 20.0 (18-27) day
Murine P388 leukemia; [6]
  % ILS (percent increase in life span relative to untreated controls): 90%
  No. alive on d 30: 2/7
  No. alive on d 60: 1/7
  Survival, Median day of death (range): 21.0 (20-32) day
Murine P388 leukemia; [7]
  % ILS (percent increase in life span relative to untreated controls): 181%
  No. alive on d 30: 4/7
  No. alive on d 60: 2/7
  Survival, Median day of death (range): 31.0 (23-36) day
Murine P388 leukemia; [8]
  % ILS (percent increase in life span relative to untreated controls): 63%
  No. alive on d 30: 0/7
  Survival, Median day of death (range): 18.0 (7-28) day
Murine P388 leukemia; [9]
  No. alive on d 30: 0/7
  Survival, Median day of death (range): 9.0 (7-27) day
Murine P388 leukemia; ip, 5 mg/kg
  % ILS (percent increase in life span relative to untreated controls): -19%
[1]
  toxic side-effects (dose-limiting): acute myelosuppression and cumulative dose-related cardiac toxicity

## COc1cccc2c1C(=O)c1c(O)c3c(c(O)c1C2=O)C[C@@](O)(C(C)=O)C[C@@H]3O[C@H]1C[C@H](N)[C@H](O)[C@H](C)O1 [daunorubicin]
[1]
  toxic side-effects (dose-limiting): acute myelosuppression and cumulative dose-related cardiac toxicity

## COc1cccc2c1C(=O)c1c(O)c3c(c(O)c1C2=O)CC(O)(C(=O)COC(=O)CCCCC(=O)O)CC3OC1CC(NC(=O)C(F)(F)F)C(O)C(C)O1 (centres unmarked) [N-Trifluoroacetyladriamycin-14-O-hemiadipate]
[2]; pH 7.4, pH 7.40, 4° C.
  degraded at 24 h: 0%
[2]; pH 7.4, pH 7.40, 27° C.
  degraded at 24 h: 0.5%
[2]; pH 8, pH 8.00, 4° C.
  degraded at 24 h: 0.3%
[2]; pH 8, pH 8.00, 27° C.
  degraded at 24 h: 1%
[2]; pH 9, pH 9.00, 4° C.
  degraded at 24 h: 0.5%
[2]
  resistance to hydrolysis: excellent resistance to hydrolysis
mice
  toxicity to mice relative to adriamycin or daunomycin: significantly less toxic to mice than adriamycin or daunomycin
CCRF-CEM cells; CCRF-CEM cells, in vitro
  IC50: 310 nM
Murine L1210 leukemia; [10]
  % ILS (percent median increase in life span relative to untreated controls, calculated as of day 50): > 456%
  No. alive on d 50: 7/7
Murine L1210 leukemia; [11]
  % ILS (percent median increase in life span relative to untreated controls, calculated as of day 50): > 456%
  No. alive on d 50: 6/7
Murine L1210 leukemia; ip
  prolonging the survival of mice bearing the L1210 leukemia: highly effective in prolonging the survival of mice bearing the L1210 leukemia
Murine L1210 leukemia; [12]
  % ILS (percent median increase in life span relative to untreated controls, calculated as of day 50): > 456%
  No. alive on d 50: 5/7
Murine L1210 leukemia; [13]
  % ILS (percent median increase in life span relative to untreated controls, calculated as of day 50): > 456%
  No. alive on d 50: 7/7
Murine P388 leukemia; [14]
  No. alive on d 30: 6/7
  No. alive on d 60: 6/7
  Survival, day of death (range only, no median): 25 days
Murine P388 leukemia; [15]
  No. alive on d 30: 6/7
  No. alive on d 60: 5/7
  Survival, day of death (range only, no median): 23,45 day
Murine P388 leukemia; [16]
  No. alive on d 30: 6/7
  No. alive on d 60: 6/7
  Survival, day of death (range only, no median): 24,93 day
Murine P388 leukemia; [17]
  No. alive on d 30: 7/7
  No. alive on d 60: 7/7
  Survival, day of death (range only, no median): 61 to 77 days
[3]
  cytotoxicity or anti-tumor activity relative to adriamycin: greater than that of adriamycin
  cytotoxicity or anti-tumor activity relative to N-trifluoroacetyladriamycin-14-valerate: approximately equal to that of N-trifluoroacetyladriamycin-14-valerate
Solubility in water
  solubility: 60 mg/mL (≈ 78.2 mM)
  solubility in water relative to N-trifluoroacetyladriamycin-14-valerate: many times greater than that of N-trifluoroacetyladriamycin-14-valerate

## COc1cccc2c1C(=O)c1c(O)c3c(c(O)c1C2=O)CC(O)(C(=O)COC(=O)CCCC(=O)O)CC3OC1CC(NC(=O)C(F)(F)F)C(O)C(C)O1 (centres unmarked) [N-Trifluoroacetyladriamycin-14-O-hemiglutarate]
[2]; pH 7.4, pH 7.40, 4° C.
  degraded at 24 h: 0%
[2]; pH 7.4, pH 7.40, 27° C.
  degraded at 24 h: 1%
[2]; pH 9, pH 9.00, 4° C.
  degraded at 24 h: < 0.5%
[2]; pH 9, pH 9.00, 27° C.
  degraded at 24 h: 3%
[2]
  resistance to hydrolysis: excellent resistance to hydrolysis
mice
  toxicity to mice relative to adriamycin or daunomycin: significantly less toxic to mice than adriamycin or daunomycin
CCRF-CEM cells; CCRF-CEM cells, in vitro
  IC50: 280 nM
Murine P388 leukemia; [18]
  % ILS (percent increase in life span relative to untreated controls): 81%
  No. alive on d 30: 2/7
  No. alive on d 60: 0/7
  Survival, Median day of death (range): 20.0 (20-35) day
Murine P388 leukemia; [14]
  % ILS (percent increase in life span relative to untreated controls): 109%
  No. alive on d 30: 2/7
  No. alive on d 60: 1/7
  Survival, Median day of death (range): 23.0 (20-35) day
Murine P388 leukemia; [15]
  % ILS (percent increase in life span relative to untreated controls): 172%
  No. alive on d 30: 3/7
  No. alive on d 60: 2/7
  Survival, Median day of death (range): 30.0 (20-42) day
Murine P388 leukemia; [16]
  No. alive on d 30: 5/7
  No. alive on d 60: 4/7
  Survival, day of death (range only, no median): 20,29 day
Murine P388 leukemia; [17]
  No. alive on d 30: 5/7
  No. alive on d 60: 4/7
  Survival, day of death (range only, no median): 25 to 36 days
[3]
  cytotoxicity or anti-tumor activity relative to adriamycin: greater than that of adriamycin
  cytotoxicity or anti-tumor activity relative to N-trifluoroacetyladriamycin-14-valerate: approximately equal to that of N-trifluoroacetyladriamycin-14-valerate
Solubility in water
  solubility: 65 mg/mL (≈ 86.2 mM)
  solubility in water relative to N-trifluoroacetyladriamycin-14-valerate: many times greater than that of N-trifluoroacetyladriamycin-14-valerate

## C[C@]12CCC(=O)C=C1CC[C@@H]1[C@@H]2[C@@H](O)C[C@@]2(C)[C@H]1CC[C@]2(O)C(=O)COC(=O)CCC(=O)O [hydrocortisone hemisuccinate]
[4]
  effect on chest pain symptom complex during valerate infusion: eliminated the symptom complex in those cases
